According to US20120039905A1, “The Role of p110 delta Signaling in Morbidity and Lung Pathology Induced by Influenza Virus Infection” (priority 2009, published 2012):
Entries after “also recorded” stand apart in the source; their conditions may differ.

Assays:
[1] = test system: influenza virus strain PR8; assay type: cell-based
[2] = test system: H7N7 A/Equine/London/1416/73 influenza virus strain; parameters: species or system mice; settings: mouse, in vivo

Cc1ccccc1-n1c(Cn2cnc3c(N)ncnc32)nc2cccc(C)c2c1=O [IC87114]
reduction of viral mRNA production compared to untreated cells [1]: ~25 fold
influenza virus replication (specific RT-PCR) ([1]; 100 μM): inhibits influenza virus replication
survival after lethal challenge [2]: increased survival; also recorded: protects mice lethally challenged
